test system: DOHH2 cells; experiment: Cell proliferation assay (MTS), DOHH2 cells; assay type: cell-based; conditions: Homo sapiens, DOHH-2, 120 h, DOHH2 (DSMZ ACC 47) cell proliferation, 5000 cells/well, 120 h, MTS; mechanism-based readout of Bcl-2 inhibition; read-out: DOHH2 IC50
Source text: (§1) MTS testing kit was purchased from Promega. The RPMI-1640, Fetal bovine serum and Penicillin-Streptomycin were purchased from Gibco. Dimethyl sulfoxide (DMSO) was purchased from Sigma.
(§2) To investigate whether a compound is able to inhibit the activity of Bcl-2 in cells, a mechanism-based assay using DOHH2 (DSMZ No.® ACC 47) and RS4; 11 (ATCC® CRL-1873™) cell was developed. In this assay, inhibition of Bcl-2 was detected by the inhibition of DOHH2 and RS4; 11 cells proliferation. DOHH2 and RS4; 11 cells were cultured in culture flasks to 40-80% confluence in RPMI-1640 plus 10% fetal bovine serum. Cells were collected and plated onto 96-well plates at desired cell density (DOHH2: 5000 cells/well; RS4; 11: 30000 cells/well). Plates were incubated overnight at 37° C., with 5% CO2 to adhere. Compounds were added to the plates, and the final compound concentrations were 10000, 3333, 1111, […], 124, 41, 14, 4.6 and 1.5 nM. Plates plated with DOHH2 or RS4; 11 cells were placed at 37° C., with 5% CO2 for 120 h (DOHH2) or 72 h (RS4; 11) respectively. 20 μl MTS/100 μl medium mixture solution were added to each well and incubate the plates for exactly 2 hours. The reaction was stopped by adding 25 μl 10% SDS per well. Measure absorbance at 490 nm and 650 nm (reference wavelength). ICso was calculated using GraphPad Prism 5.0.

How did the IC50 turn out when `CC(=O)N=S1(=O)CCN(C[C@H](C)Nc2ccc(S(=O)(=O)NC(=O)c3ccc(N4CCN(CC5=C(c6ccc(Cl)cc6)CC(C)(C)CC5)CC4)cc3Oc3cnc4[nH]ccc4c3)cc2[N+](=O)[O-])CC1` [Example 40, (S)-2-((1H-pyrrolo[2,3-b]pyridin-5-yl)oxy)-N-((4-((1-(1-(acetylimino)-1-oxido-1λ^6-thiomorpholino)propan-2-yl)amino)-3-nitrophenyl)sulfonyl)-4-(4-((4′-chloro-5,5-dimethyl-3,4,5,6-tetrahydro-[1,1′-biphenyl]-2-yl)methyl)piperazin-1-yl)benzamide] was run?
Its IC50 is 84 nM.

test system: RS4; 11 cells; experiment: Cell proliferation assay (MTS), RS4; 11 cells; assay type: cell-based; conditions: Homo sapiens, RS4-11, 72 h, RS4; 11 (ATCC CRL-1873) cell proliferation, 30000 cells/well, 72 h, MTS; mechanism-based readout of Bcl-2 inhibition; read-out: RS4; 11 IC50
Source text: as §1, §2

`CC(=O)N=S1(=O)CCN(C[C@H](C)Nc2ccc(S(=O)(=O)NC(=O)c3ccc(N4CCN(CC5=C(c6ccc(Cl)cc6)CC(C)(C)CC5)CC4)cc3Oc3cnc4[nH]ccc4c3)cc2[N+](=O)[O-])CC1` [Example 40, (S)-2-((1H-pyrrolo[2,3-b]pyridin-5-yl)oxy)-N-((4-((1-(1-(acetylimino)-1-oxido-1λ^6-thiomorpholino)propan-2-yl)amino)-3-nitrophenyl)sulfonyl)-4-(4-((4′-chloro-5,5-dimethyl-3,4,5,6-tetrahydro-[1,1′-biphenyl]-2-yl)methyl)piperazin-1-yl)benzamide] was tested. Which IC50 did it give?
Its IC50 is 29 nM.

`CC(Nc1ccc(S(=O)(=O)NC(=O)c2ccc(N3CCN(CC4=C(c5ccc(Cl)cc5)CC(C)(C)CC4)CC3)cc2Oc2cnc3[nH]ccc3c2)cc1[N+](=O)[O-])C1CCS(=O)(=NC2CC2)CC1` (stereo not drawn) [Example 62, 2-((1H-pyrrolo[2,3-b]pyridin-5-yl)oxy)-4-(4-((4′-chloro-5,5-dimethyl-3,4,5,6-tetrahydro-[1,1′-biphenyl]-2-yl)methyl)piperazin-1-yl)-N-((4-((1-(1-(cyclopropylimino)-1-oxidohexahydro-1λ^6-thiopyran-4-yl)ethyl)amino)-3-nitrophenyl)sulfonyl) benzamide] was tested. Which IC50 did it give?
The IC50 was 160 nM.

Which IC50 does the source give for `CC1(C)CCC(CN2CCN(c3ccc(C(=O)NS(=O)(=O)c4ccc(NCCN5CCS(=O)(=NC(=O)C6CC6)CC5)c([N+](=O)[O-])c4)c(Oc4cnc5[nH]ccc5c4)c3)CC2)=C(c2ccc(Cl)cc2)C1` [Example 69, 2-((1H-pyrrolo[2,3-b]pyridin-5-yl)oxy)-4-(4-((4′-chloro-5,5-dimethyl-3,4,5,6-tetrahydro-[1,1′-biphenyl]-2-yl)methyl)piperazin-1-yl)-N-((4-((2-(1-((cyclopropanecarbonyl)imino)-1-oxido-1λ^6-thiomorpholino)ethyl)amino)-3-nitrophenyl)sulfonyl) benzamide] here?
The IC50 was 165 nM.

How did the IC50 turn out when `C[C@@H](CN1CCS(=O)(=NC#N)CC1)Nc1ccc(S(=O)(=O)NC(=O)c2ccc(N3CCN(CC4=C(c5ccc(Cl)cc5)CC(C)(C)CC4)CC3)cc2Oc2cnc3[nH]ccc3c2)cc1S(=O)(=O)C(F)(F)F` [Example 48, (S)-2-((1H-pyrrolo[2,3-b]pyridin-5-yl)oxy)-4-(4-((4′-chloro-5,5-dimethyl-3,4,5,6-tetrahydro-[1,1′-biphenyl]-2-yl)methyl)piperazin-1-yl)-N-((4-((1-(1-(cyanoimino)-1-oxido-1λ^6-thiomorpholino)propan-2-yl)amino)-3-((trifluoromethyl)sulfonyl)phenyl)sulfonyl)benzamide] was run?
Its IC50 is 173 nM.

Which IC50 does the source give for `CC1(C)CCC(CN2CCN(c3ccc(C(=O)NS(=O)(=O)c4ccc(NCC(N5CCP(C)(=O)CC5)C(F)(F)F)c([N+](=O)[O-])c4)c(Oc4cnc5[nH]ccc5c4)c3)CC2)=C(c2ccc(Cl)cc2)C1` (stereo not drawn) [Example 14, 2-((1H-pyrrolo[2,3-b]pyridin-5-yl)oxy)-4-(4-((4′-chloro-5,5-dimethyl-3,4,5,6-tetrahydro-[1,1′-biphenyl]-2-yl)methyl)piperazin-1-yl)-N-((3-nitro-4-((3,3,3-trifluoro-2-(4-methyl-4-oxido-1,4-azaphosphinan-1-yl)propyl)amino)phenyl)sulfonyl) benzamide] here?
Its IC50 is 520 nM.

With `CC(=O)N=S1(=O)CCC(CNc2ccc(S(=O)(=O)NC(=O)c3ccc(N4CCN(CC5=C(c6ccc(Cl)cc6)CC(C)(C)CC5)CC4)cc3Oc3cnc4[nH]ccc4c3)cc2[N+](=O)[O-])CC1` (stereo not drawn) [Example 31, 2-((1H-pyrrolo[2,3-b]pyridin-5-yl)oxy)-N-((4-(((1-(acetylimino)-1-oxidohexahydro-1λ^6-thiopyran-4-yl)methyl)amino)-3-nitrophenyl)sulfonyl)-4-(4-((4′-chloro-5,5-dimethyl-3,4,5,6-tetrahydro-[1,1′-biphenyl]-2-yl)methyl)piperazin-1-yl)benzamide] as the compound, how does the IC50 read?
Its IC50 is 135 nM.

`CC1(C)CCC(CN2CCN(c3ccc(C(=O)NS(=O)(=O)c4ccc(NCCN5CCS(=O)(=NC#N)CC5)c([N+](=O)[O-])c4)c(Oc4cnc5[nH]ccc5c4)c3)CC2)=C(c2ccc(Cl)cc2)C1` [Example 36, 2-((1H-pyrrolo[2,3-b]pyridin-5-yl)oxy)-4-(4-((4′-chloro-5,5-dimethyl-3,4,5,6-tetrahydro-[1,1′-biphenyl]-2-yl)methyl)piperazin-1-yl)-N-((4-((2-(1-(cyanoimino)-1-oxido-1λ^6-thiomorpholino)ethyl)amino)-3-nitrophenyl)sulfonyl) benzamide] was tested. Which IC50 did it give?
The IC50 was 232 nM.

How did the IC50 turn out when `CC1(C)CCC(CN2CCN(c3ccc(C(=O)NS(=O)(=O)c4ccc(NCCN5CCS(=N)(=O)CC5)c([N+](=O)[O-])c4)c(Oc4cnc5[nH]ccc5c4)c3)CC2)=C(c2ccc(Cl)cc2)C1` [Example 46, 2-((1H-pyrrolo[2,3-b]pyridin-5-yl)oxy)-4-(4-((4′-chloro-5,5-dimethyl-3,4,5,6-tetrahydro-[1,1′-biphenyl]-2-yl)methyl)piperazin-1-yl)-N-((4-((2-(1-imino-1-oxido-1λ^6-thiomorpholino)ethyl)amino)-3-nitrophenyl)sulfonyl) benzamide] was run?
Its IC50 is 155 nM.

With `CN=S1(=O)CCC(CNc2ccc(S(=O)(=O)NC(=O)c3ccc(N4CCN(CC5=C(c6ccc(Cl)cc6)CC(C)(C)CC5)CC4)cc3Oc3cnc4[nH]ccc4c3)cc2[N+](=O)[O-])CC1` (stereo not drawn) [Example 29, 2-((1H-pyrrolo[2,3-b]pyridin-5-yl)oxy)-4-(4-((4′-chloro-5,5-dimethyl-3,4,5,6-tetrahydro-[1,1′-biphenyl]-2-yl)methyl)piperazin-1-yl)-N-((4-(((1-(methylimino)-1-oxidohexahydro-1λ^6-thiopyran-4-yl)methyl)amino)-3-nitrophenyl)sulfonyl)benzamide] as the compound, how does the IC50 read?
Its IC50 is 323 nM.

`CC1(C)CCC(CN2CCN(c3ccc(C(=O)NS(=O)(=O)c4ccc(NCC5CCS(=N)(=O)CC5)c([N+](=O)[O-])c4)c(Oc4cnc5[nH]ccc5c4)c3)CC2)=C(c2ccc(Cl)cc2)C1` (stereo not drawn) [Example 28, 2-((1H-pyrrolo[2,3-b]pyridin-5-yl)oxy)-4-(4-((4′-chloro-5,5-dimethyl-3,4,5,6-tetrahydro-[1,1′-biphenyl]-2-yl)methyl)piperazin-1-yl)-N-((4-(((1-imino-1-oxidohexahydro-1λ^6-thiopyran-4-yl)methyl)amino)-3-nitrophenyl)sulfonyl) benzamide] was tested. Which IC50 did it give?
The IC50 was 122 nM.

How did the IC50 turn out when `CC(Nc1ccc(S(=O)(=O)NC(=O)c2ccc(N3CCN(CC4=C(c5ccc(Cl)cc5)CC(C)(C)CC4)CC3)cc2Oc2cnc3[nH]ccc3c2)cc1[N+](=O)[O-])C1CCS(=O)(=NC#N)CC1` (stereo not drawn) [Example 32, 2-((1H-pyrrolo[2,3-b]pyridin-5-yl)oxy)-4-(4-((4′-chloro-5,5-dimethyl-3,4,5,6-tetrahydro-[1,1′-biphenyl]-2-yl)methyl)piperazin-1-yl)-N-((4-((1-(1-(cyanoimino)-1-oxidohexahydro-1λ^6-thiopyran-4-yl)ethyl)amino)-3-nitrophenyl)sulfonyl)benzamide] was run?
The IC50 was 438 nM.

How did the IC50 turn out when `CC1(C)CCC(CN2CCN(c3ccc(C(=O)NS(=O)(=O)c4ccc(NCCN5CCS(=O)(=NS(C)(=O)=O)CC5)c([N+](=O)[O-])c4)c(Oc4cnc5[nH]ccc5c4)c3)CC2)=C(c2ccc(Cl)cc2)C1` [Example 71, 2-((1H-pyrrolo[2,3-b]pyridin-5-yl)oxy)-4-(4-((4′-chloro-5,5-dimethyl-3,4,5,6-tetrahydro-[1,1′-biphenyl]-2-yl)methyl)piperazin-1-yl)-N-((4-((2-(1-((methylsulfonyl)imino)-1-oxido-1λ^6-thiomorpholino)ethyl)amino)-3-nitrophenyl)sulfonyl)benzamide] was run?
Its IC50 is 258 nM.

How did the IC50 turn out when `CN=S1(=O)CCN(CCNc2ccc(S(=O)(=O)NC(=O)c3ccc(N4CCN(CC5=C(c6ccc(Cl)cc6)CC(C)(C)CC5)CC4)cc3Oc3cnc4[nH]ccc4c3)cc2[N+](=O)[O-])CC1` [Example 33, 2-((1H-pyrrolo[2,3-b]pyridin-5-yl)oxy)-4-(4-((4′-chloro-5,5-dimethyl-3,4,5,6-tetrahydro-[1,1′-biphenyl]-2-yl)methyl)piperazin-1-yl)-N-((4-((2-(1-(methylimino)-1-oxido-1λ^6-thiomorpholino)ethyl)amino)-3-nitrophenyl)sulfonyl) benzamide] was run?
Its IC50 is 101 nM.

With `CC(CNc1ccc(S(=O)(=O)NC(=O)c2ccc(N3CCN(CC4=C(c5ccc(Cl)cc5)CC(C)(C)CC4)CC3)cc2Oc2cnc3[nH]ccc3c2)cc1[N+](=O)[O-])N1CCP(C)(=O)CC1` (stereo not drawn) [Example 10, 2-((1H-pyrrolo[2,3-b]pyridin-5-yl)oxy)-4-(4-((4′-chloro-5,5-dimethyl-3,4,5,6-tetrahydro-[1,1′-biphenyl]-2-yl)methyl)piperazin-1-yl)-N-((4-((2-(4-methyl-4-oxido-1,4-azaphosphinan-1-yl)propyl)amino)-3-nitrophenyl)sulfonyl)benzamide] as the compound, how does the IC50 read?
Its IC50 is 133 nM.
